In the supplement of paper PMC10307832:

What was measured:
Assay in all cases: relative viability (nuclei count vs DMSO), 5 days (fraction); higher = more cells survive
[1] = compound: CCN(CCO)CCCC(C)Nc1ccnc2cc(Cl)ccc12 [Hydroxychloroquine] + O=C(c1cc(Cc2n[nH]c(=O)c3ccccc23)ccc1F)N1CCN(C(=O)C2CC2)CC1 [Olaparib] (partner 8 µM)
Summary of the method: (§1)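 Nuclei were stained with Hoechst during a one-step fixation (final 0.05% Triton X-100, 1% formaldehyde, 1 ug/ml Hoechst) carried out 5 days after dosing, then counted on 4× images. The cells, lung cancer lines in 1536-well plates, had been dosed by pin tool the day after seeding with one drug alone or a fixed anchor-drug dose plus five library-drug doses (not always all listed) in √10 steps. Relative viability is the nuclei count in treated wells divided by that in vehicle wells, and each value is the median of duplicate plates.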

[2] = compound: CCN(CCO)CCCC(C)Nc1ccnc2cc(Cl)ccc12 [Hydroxychloroquine] + CC(C)C[C@H](NC(=O)[C@H](Cc1ccccc1)NC(=O)c1cnccn1)B(O)O [Bortezomib] (partner 0.002 µM)
Summary of the method: as §1

[3] = compound: CCN(CCO)CCCC(C)Nc1ccnc2cc(Cl)ccc12 [Hydroxychloroquine] + Nc1nc2[nH]cc(CCc3ccc(C(=O)N[C@@H](CCC(=O)O)C(=O)O)cc3)c2c(=O)[nH]1 [Pemetrexed] (partner 0.2 µM)
Summary of the method: as §1

[4] = compound: CCN(CCO)CCCC(C)Nc1ccnc2cc(Cl)ccc12 [Hydroxychloroquine] + Cc1nc(NC(=O)N2CCC[C@H]2C(N)=O)sc1-c1ccnc(C(C)(C)C(F)(F)F)c1 [Alpelisib] (partner 2 µM)
Summary of the method: as §1

Row | Cell Line | relative viability ([1]; first compound 0.5 µM) | relative viability ([1]; first compound 1.581 µM) | relative viability ([1]; first compound 5 µM) | relative viability ([1]; first compound 15.81 µM) | relative viability ([1]; first compound 50 µM) | relative viability ([2]; first compound 0.5 µM) | relative viability ([2]; first compound 1.581 µM) | relative viability ([2]; first compound 5 µM) | relative viability ([2]; first compound 15.81 µM) | relative viability ([2]; first compound 50 µM) | relative viability ([3]; first compound 0.5 µM) | relative viability ([3]; first compound 1.581 µM) | relative viability ([3]; first compound 5 µM) | relative viability ([3]; first compound 15.81 µM) | relative viability ([3]; first compound 50 µM) | relative viability ([4]; first compound 0.5 µM) | relative viability ([4]; first compound 1.581 µM) | relative viability ([4]; first compound 5 µM) | relative viability ([4]; first compound 15.81 µM) | relative viability ([4]; first compound 50 µM)
1 | 201T | 0.788 | 0.821 | 0.826 | 0.857 | 0.829 | 1.07 | 1.09 | 1.1 | 1.07 | 1.11 | 0.346 | 0.331 | 0.338 | 0.307 | 0.339 | 1.03 | 0.916 | 1.02 | 1.03 | 1.01
2 | A549 | 0.332 | 0.297 | 0.355 | 0.323 | 0.371 | – | – | – | – | – | – | – | – | – | – | 0.749 | 0.577 | 0.761 | 0.708 | 0.623
3 | A-427 | 0.816 | 0.702 | 0.61 | 0.691 | 0.816 | 0.956 | 0.946 | 0.982 | 0.961 | 1.06 | 0.948 | 1.05 | 0.926 | 0.838 | 1.01 | 1.06 | 1.03 | 1.04 | 0.956 | 1.1
4 | ABC-1 | 0.98 | 0.889 | 0.797 | 0.847 | 0.727 | 0.263 | 0.271 | 0.277 | 0.297 | 0.235 | – | – | – | – | – | 1.27 | 1.03 | 0.924 | 0.949 | 0.942
5 | BEN | 0.843 | 1.08 | 1.04 | 1.03 | 1.02 | 0.693 | 0.802 | 0.977 | 0.824 | 0.949 | 0.928 | 0.719 | 0.733 | 0.855 | 0.684 | 1.04 | 1.04 | 0.981 | 1.06 | 1.32
6 | CAL-12T | 0.693 | 0.63 | 0.782 | 0.689 | 0.68 | 1.11 | – | 0.922 | 0.795 | 0.926 | 1.15 | 1.18 | 1.31 | 1.27 | 1.33 | 1.24 | 1.16 | 1.32 | 1.42 | 1.69
7 | COR-L23 | 0.315 | 0.345 | 0.381 | 0.353 | 0.387 | 0.89 | 1.17 | 1 | 1.28 | 1.21 | 0.192 | 0.189 | 0.21 | 0.211 | 0.186 | 0.739 | 0.813 | 0.899 | 0.961 | 0.906
8 | COR-L 105 | 0.675 | 0.612 | 0.596 | 0.519 | 0.744 | 0.879 | 0.664 | 0.694 | 0.737 | 0.891 | 1.12 | 1.01 | 0.967 | 1.05 | 1.08 | 1.13 | 1 | 1.08 | 0.765 | 0.87
9 | Calu-6 | 0.65 | 0.607 | 0.615 | 0.673 | 0.569 | 1 | 1.08 | 0.954 | 1 | 0.922 | – | – | – | – | – | 1.01 | 0.881 | 0.896 | 0.939 | 0.924
10 | ChaGo-K-1 | 0.385 | 0.381 | 0.422 | 0.4 | 0.422 | 1.04 | 0.895 | 0.687 | 1.06 | 1.02 | 0.417 | 0.259 | 0.291 | 0.262 | 0.276 | – | – | – | – | –
11 | EBC-1 | 0.711 | 0.766 | 0.722 | 0.772 | 0.573 | 0.471 | 0.51 | 0.505 | 0.519 | 0.459 | – | – | – | – | – | 1.01 | 0.572 | 0.784 | 0.688 | 0.599
12 | EKVX | 0.978 | 0.755 | 0.769 | 0.763 | 1.04 | 1.26 | 0.925 | 1.04 | 0.916 | 1.09 | 0.385 | 0.394 | 0.32 | 0.385 | 0.423 | 0.964 | 0.867 | 0.844 | 0.846 | 0.912
13 | EMC-BAC-2 | 0.508 | 0.439 | 0.472 | 0.484 | 0.442 | 0.981 | 1.03 | 1.06 | 1.12 | 1.17 | 0.49 | 0.439 | 0.434 | 0.313 | 0.411 | 0.736 | 0.708 | 0.767 | 0.727 | 0.75
14 | EPLC-272H | – | 0.891 | 0.94 | 0.929 | 0.73 | 0.762 | 0.579 | 0.736 | 0.861 | 1.08 | – | 0.331 | 0.325 | 0.341 | 0.352 | 0.928 | 0.858 | 0.94 | 0.998 | 0.919
15 | H3255 | 0.592 | 0.562 | 0.544 | 0.582 | 0.55 | 0.835 | 0.743 | 0.722 | 0.68 | 0.702 | 0.566 | 0.603 | 0.543 | 0.586 | 0.477 | 0.759 | 0.612 | 0.727 | 0.675 | 0.72
16 | HARA | 0.64 | 0.838 | 1.04 | 1.14 | 0.487 | 1.1 | 1.19 | 1.02 | 1.13 | 1.06 | 0.286 | 0.231 | 0.233 | 0.263 | 0.251 | 0.763 | 0.856 | 0.863 | 0.805 | 0.841
17 | HCC-15 | 0.688 | 0.675 | 0.735 | 0.817 | 0.626 | 0.951 | 0.918 | 1.08 | 1.09 | 1.2 | 0.231 | 0.241 | 0.205 | 0.226 | 0.231 | 0.925 | 0.841 | 0.839 | 0.879 | 0.909
18 | HCC-44 | 0.964 | 1.02 | 1.03 | 1.01 | 1.04 | 0.875 | 0.865 | 0.883 | 0.914 | 0.955 | 0.635 | 0.709 | 0.653 | 0.655 | 0.659 | 0.815 | 0.838 | 0.86 | 0.922 | 0.902
